From article PMC8703807, “Synthesis of ^68Ga-Labeled cNGR-Based Glycopeptides and In Vivo Evaluation by PET Imaging” (Pharmaceutics, 2021)
Where two headings read alike, the source gives them in different places. Positions of bridges follow the written chain, without caps; N, C: chain ends. Residues, ends and D or L forms follow the SMILES beside them. *: point of attachment. X1 = O=C(O)CN1CCN(CC(=O)O)CCN(C(CCC(=O)NCc2ccc(NC(=S)*)cc2)C(=O)O)CCN(CC(=O)O)CC1

What was measured:
[1] = Determination of logP value (octanol/water partition coefficient); assay type: physicochemical
Description: The mixture was shaken with a vortex shaker for 5 min and centrifugated (9000 rpm) for 5 min. A 3 × 20 µL amount of both solvents was pipetted into a vial. The radioactivity of the fractions was determined with a gamma counter.

[2] = test system: B16-F10 melanoma tumor-bearing mice; test: In vivo PET imaging of B16-F10 melanoma tumor-bearing mice; conditions: 70 min after i.v. injection; for identification of subcutaneous B16-F10 tumors on PET images: qualitative
Description: (§1) For subcutaneous B16-F10 (mouse melanoma) tumor induction, C57BL/6 mice (n = 20) were anaesthetized with 3% isoflurane (Forane, AbbVie) using a dedicated small animal anesthesia device (Tec3 Isoflurane Vaporizer, Eickemeyer, UK) and mice were injected subcutaneously with 3 × 10^6 B16-F10 cells in 150 µL of sterile saline into the left shoulder area of the animals. In vivo and ex vivo experiments were carried out 10 ± 1 days after subcutaneous injection of tumor cells at the tumor volume of 80 ± 2 mm^3.
(§2) For in vivo biodistribution studies B16-F10 tumor-bearing mice were anaesthetized with 3% isoflurane and were injected with 6.6 ± 0.3 MBq [^68Ga]-11, or [^68Ga]-3, or [^68Ga]-9 or [^68Ga]-10 in 150 μL saline via the lateral tail vein 10 ± 1 days after subcutaneous injection of tumor cells. 20 min static PET scans were performed 70 min after intravenous injection of the radiotracers from the tumorous area using the preclinical miniPET-II device (University of Debrecen, Faculty of Medicine, Department of Medical Imaging, Division of Nuclear Medicine and Translational Imaging). After image reconstruction, volumes of interest (VOIs) were manually drawn around the examined regions using the BrainCAD image analysis software and quantitative standardized uptake values (SUVs) values were calculated.
(§3) Figure 1 In vivo PET imaging of [^68Ga]-11, [^68Ga]-3, [^68Ga]-9 and [^68Ga]-10 accumulation in B16-F10 tumor-bearing mice 10 ± 1 days after tumor cell inoculation and 70 min after intravenous injection of the radiotracers (A panel). Red arrows: B16-F10 tumor; black arrows: liver. (B,C) panels: quantitative SUVmean and tumor-to-background (muscle) ratio (T/M) analysis of tracer uptake in mice (n = 3/radiopharmaceutical) 70 min post-injection. Significance level: p ≤ 0.05 (*). SUV: standardized uptake value; T/M: tumor-to-muscle ratio. SUV values are presented as mean ± SD.

[3] = as above; conditions: C57BL/6, mouse, in vivo, iv, total radioactivity
Description: as §1, §2, §3

[4] = test system: B16-F10 tumor-bearing mice; conditions: ex vivo, 90 min after injection, compared to the other investigated molecules
Description: as §1

[5] = 1-octanol/water, gamma counter, read-out: octanol/water partition coefficient (logP)
[6] = tumor SUVmean, B16-F10 tumor, 70 min after i.v. injection, n = 3, mean ± SD

Structure (SMILES)	logP [1, 5]	liver SUVmean ([2]; n = 3, mean ± SD)	identification of subcutaneous B16-F10 tumors on PET images [2]	tissue to tissue ratio at 70 min [3]	SUV at 70 min [3, 6] [SUV]	radioactivity concentration in blood [4]	SUV at 70 min ([3]; liver SUVmean, 70 min after i.v. injection, n = 3, mean ± SD) [SUV]	logP [1]	SUV at 70 min ([3]; liver SUVmean) [SUV]	SUV at 70 min ([3]; tumor SUVmean) [SUV]
N=C(N)NCCC[C@@H]1NC(=O)CNC(=O)[C@H](CC(N)=O)NC(=O)[C@H](CCCCNC(=O)CCC(=O)N2Cc3ccccc3-c3c(nnn3CCCO[C@@H]3O[C@H](CO)[C@@H](O[C@@H]4O[C@H](CO)[C@H](O)[C@H](O)[C@H]4O)[C@H](O)[C@H]3NC(=S)Nc3ccc(CNC(=O)CCC(C(=O)O)N4CCN(CC(=O)O)CCN(CC(=O)O)CCN(CC(=O)O)CC4)cc3)-c3ccccc32)NC(=O)CC[C@@H](C(N)=O)NC1=O (stereo partly shown) [[^68Ga]-9, metal not drawn]	-3.68	0.18 ± 0.01	clearly identified	6.01 ± 1.24	0.11 ± 0.03	–	–	–	–	–
N=C(N)NCCC[C@@H]1NC(=O)CNC(=O)[C@H](CC(N)=O)NC(=O)[C@H](CCCCNC(=O)CCOCCOCCOCCOCCNC(=O)CCC(=O)N2Cc3ccccc3-c3c(nnn3CCCO[C@@H]3O[C@H](CO)[C@@H](O[C@@H]4O[C@H](CO)[C@H](O)[C@H](O)[C@H]4O)[C@H](O)[C@H]3NC(=S)Nc3ccc(CNC(=O)CCC(C(=O)O)N4CCN(CC(=O)O)CCN(CC(=O)O)CCN(CC(=O)O)CC4)cc3)-c3ccccc32)NC(=O)CC[C@@H](C(N)=O)NC1=O (stereo partly shown) [[^68Ga]-10, metal not drawn]	-3.69	–	clearly identified	7.89 ± 1.31	0.15 ± 0.01	higher radioactivity concentration	0.1 ± 0.02	–	–	–
N=C(N)NCCC[C@@H]1NC(=O)CNC(=O)[C@H](CC(N)=O)NC(=O)[C@H](CCCCNC(=S)Nc2ccc(CNC(=O)CCC(C(=O)O)N3CCN(CC(=O)O)CCN(CC(=O)O)CCN(CC(=O)O)CC3)cc2)NC(=O)CC[C@@H](C(N)=O)NC1=O (stereo partly shown) [[^68Ga]-11, metal not drawn] (K(X1)NGRE-NH2; lactam N-5)	–	–	clearly identified	5.71 ± 1.17	–	–	–	-4.13	0.28 ± 0.1	0.09 ± 0.03
